Reference: US9212182B2, “Bicyclic sulfonamide compounds as sodium channel inhibitors” (AMGEN INC., priority 2013, dated 2015)
Read-outs that look alike come from different tables or passages of the source.

Biological target: Nav 1.7 (Homo sapiens (Human), UniProt Q15858)
Test: in-vitro Nav 1.7 PX (IC50)
Type: cell-based

Sequence of Nav 1.7 (Q15858 whole entry): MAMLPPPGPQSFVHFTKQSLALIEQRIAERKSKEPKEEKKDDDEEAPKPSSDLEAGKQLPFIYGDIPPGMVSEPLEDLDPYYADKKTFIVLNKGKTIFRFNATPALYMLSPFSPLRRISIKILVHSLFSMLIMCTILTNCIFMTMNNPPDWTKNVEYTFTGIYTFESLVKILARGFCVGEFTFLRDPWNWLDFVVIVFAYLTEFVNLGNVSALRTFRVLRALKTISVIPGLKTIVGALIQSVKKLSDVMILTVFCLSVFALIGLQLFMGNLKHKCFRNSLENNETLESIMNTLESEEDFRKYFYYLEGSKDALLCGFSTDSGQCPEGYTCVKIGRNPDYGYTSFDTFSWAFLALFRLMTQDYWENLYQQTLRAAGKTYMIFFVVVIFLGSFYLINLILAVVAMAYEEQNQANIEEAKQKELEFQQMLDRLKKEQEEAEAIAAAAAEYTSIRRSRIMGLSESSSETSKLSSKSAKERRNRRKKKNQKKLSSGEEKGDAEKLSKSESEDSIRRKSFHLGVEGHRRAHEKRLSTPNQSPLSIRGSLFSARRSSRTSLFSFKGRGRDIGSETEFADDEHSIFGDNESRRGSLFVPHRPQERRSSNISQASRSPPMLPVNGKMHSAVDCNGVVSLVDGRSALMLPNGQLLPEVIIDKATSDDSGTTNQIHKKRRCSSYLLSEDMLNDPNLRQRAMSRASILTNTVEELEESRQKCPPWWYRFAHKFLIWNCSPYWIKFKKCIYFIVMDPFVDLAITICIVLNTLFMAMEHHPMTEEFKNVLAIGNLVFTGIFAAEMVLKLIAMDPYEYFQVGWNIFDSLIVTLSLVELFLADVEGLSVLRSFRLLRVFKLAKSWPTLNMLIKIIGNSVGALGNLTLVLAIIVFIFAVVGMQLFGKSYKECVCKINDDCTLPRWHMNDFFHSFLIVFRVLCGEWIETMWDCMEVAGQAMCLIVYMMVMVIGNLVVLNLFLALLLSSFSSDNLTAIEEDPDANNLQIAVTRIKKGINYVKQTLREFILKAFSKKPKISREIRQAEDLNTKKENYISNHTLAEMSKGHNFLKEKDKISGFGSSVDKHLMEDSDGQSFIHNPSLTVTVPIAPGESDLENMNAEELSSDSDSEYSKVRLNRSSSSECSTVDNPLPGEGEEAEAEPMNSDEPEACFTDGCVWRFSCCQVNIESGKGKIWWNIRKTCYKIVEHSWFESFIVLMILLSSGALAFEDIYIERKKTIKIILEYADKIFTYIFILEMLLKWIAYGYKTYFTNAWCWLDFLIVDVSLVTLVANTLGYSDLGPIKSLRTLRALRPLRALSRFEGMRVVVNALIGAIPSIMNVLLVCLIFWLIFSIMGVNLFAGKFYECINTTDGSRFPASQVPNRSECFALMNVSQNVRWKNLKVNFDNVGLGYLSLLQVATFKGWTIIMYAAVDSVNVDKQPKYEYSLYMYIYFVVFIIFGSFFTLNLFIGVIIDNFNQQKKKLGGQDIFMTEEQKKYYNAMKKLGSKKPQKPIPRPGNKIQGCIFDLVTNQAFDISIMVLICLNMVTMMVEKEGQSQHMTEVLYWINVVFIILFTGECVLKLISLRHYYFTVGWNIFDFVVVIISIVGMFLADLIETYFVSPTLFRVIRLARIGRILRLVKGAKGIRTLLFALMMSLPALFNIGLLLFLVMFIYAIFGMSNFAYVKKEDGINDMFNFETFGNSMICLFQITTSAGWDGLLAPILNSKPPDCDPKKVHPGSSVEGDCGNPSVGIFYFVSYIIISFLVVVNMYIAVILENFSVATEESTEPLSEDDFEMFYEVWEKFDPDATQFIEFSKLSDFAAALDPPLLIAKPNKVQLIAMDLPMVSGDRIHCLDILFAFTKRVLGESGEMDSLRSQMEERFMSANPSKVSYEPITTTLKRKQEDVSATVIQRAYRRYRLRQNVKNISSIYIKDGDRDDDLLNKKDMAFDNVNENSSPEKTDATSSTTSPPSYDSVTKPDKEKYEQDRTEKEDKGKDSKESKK

Structure (SMILES) | IC50 (in-vitro Nav 1.7 PX data) [nM] | other results
COc1cc(-c2cc(OC)c(-n3c(=O)ccc4cc(S(=O)(=O)Nc5ncccn5)ccc43)cc2F)ccc1F [Example 1006, 1-(2,4′-difluoro-3′,5-dimethoxy-4-biphenylyl)-2-oxo-N-2-pyrimidinyl-1,2-dihydro-6-quinolinesulfonamide] | 76 | –
COc1cnc(-c2cc(F)cc(Cl)c2)cc1-n1c(=O)ccc2cc(S(=O)(=O)Nc3ccon3)ccc21 [Example 618, 1-(2-(3-chloro-5-fluorophenyl)-5-methoxy-4-pyridinyl)-N-3-isoxazolyl-2-oxo-1,2-dihydro-6-quinolinesulfonamide] | 605 | –
COc1cc(-c2cccc(F)c2)c(Cl)cc1-n1c(=O)ccc2cc(S(=O)(=O)Nc3nncs3)ccc21 (atropisomer, axis not shown; (M)) [Example 354, (M)-1-(2-chloro-3′-fluoro-5-methoxy-[1,1′-biphenyl]-4-yl)-2-oxo-N-(1,3,4-THIADIAZOL-2-yl)-1,2-dihydroquinoline-6-sulfonamide] | – | IC50: 5860 nM
COc1cc(-c2ccc(Cl)c(C)c2)c(F)cc1-n1c(=O)ccc2cc(S(=O)(=O)Nc3ncco3)ccc21 (atropisomer, axis not shown; (P)) [Example 694, (P)-1-(4′-chloro-2-fluoro-5-methoxy-3′-methyl-4-biphenylyl)-N-1,3-oxazol-2-yl-2-oxo-1,2-dihydro-6-quinolinesulfonamide] | 27 | –
COc1cc(-c2cnc(OC)c(Cl)c2)ccc1-n1c(=O)ccc2cc(S(=O)(=O)Nc3ccon3)ccc21 [Example 814, 1-(4-(5-chloro-6-methoxy-3-pyridinyl)-2-methoxyphenyl)-N-3-isoxazolyl-2-oxo-1,2-dihydro-6-quinolinesulfonamide] | 35 | –
COc1cc(F)cc(-c2ccc(-n3c(=O)ccc4cc(S(=O)(=O)Nc5ncc(F)cn5)ccc43)c(OC)c2)c1 [Example 998, 1-(3′-fluoro-3,5′-dimethoxy-4-biphenylyl)-N-(5-fluoro-2-pyrimidinyl)-2-oxo-1,2-dihydro-6-quinolinesulfonamide] | 89 | –
COc1cc(-c2ccc(C)c(F)c2)c(F)cc1-n1c(=O)ccc2cc(S(=O)(=O)Nc3ncccn3)ccc21 [Example 1126, 1-(2,3′-difluoro-5-methoxy-4′-methyl-4-biphenylyl)-2-oxo-N-2-pyrimidinyl-1,2-dihydro-6-quinolinesulfonamide] | 57 | –
COc1cc(OC)cc(-c2ccc(-n3c(=O)ccc4cc(S(=O)(=O)Nc5ccon5)ccc43)c(OC)c2)c1 [Example 811, N-3-isoxazolyl-2-oxo-1-(3,3′,5′-trimethoxy-4-biphenylyl)-1,2-dihydro-6-quinolinesulfonamide] | 66 | –
COc1cc(-c2cc(C)cnc2OC)c(F)cc1-n1c(=O)ccc2cc(S(=O)(=O)Nc3ccon3)ccc21 [Example 715, 1-(5-fluoro-2-methoxy-4-(2-methoxy-5-methyl-3-pyridinyl)phenyl)-N-3-isoxazolyl-2-oxo-1,2-dihydro-6-quinolinesulfonamide] | 151 | –
COc1cc(-c2ccnc(C)c2)c(F)cc1-n1c(=O)ccc2cc(S(=O)(=O)Nc3ccon3)ccc21 [Example 736, 1-(5-fluoro-2-methoxy-4-(2-methyl-4-pyridinyl)phenyl)-N-3-isoxazolyl-2-oxo-1,2-dihydro-6-quinolinesulfonamide] | 2810 | –
COc1nc(OCC2CCCC2)c(Cl)cc1-n1c(=O)ccc2cc(S(=O)(=O)Nc3ccon3)ccc21 [Example 824, 1-(5-chloro-6-(cyclopentylmethoxy)-2-methoxy-3-pyridinyl)-N-3-isoxazolyl-2-oxo-1,2-dihydro-6-quinolinesulfonamide] | 217 | –
COc1cnc(Cl)cc1-n1c(=O)ccc2cc(S(=O)(=O)Nc3ccon3)ccc21 [Example 617, 1-(2-chloro-5-methoxy-4-pyridinyl)-N-3-isoxazolyl-2-oxo-1,2-dihydro-6-quinolinesulfonamide] | 3880 | –
CCCOc1cc(NS(=O)(=O)c2ccc3c(ccc(=O)n3-c3cc(F)c(Br)cc3OC)c2)ncn1 (atropisomer, axis not shown; (P)) [Example 1186, (P)-1-(4-bromo-5-fluoro-2-methoxyphenyl)-2-oxo-N-(6-propoxy-4-pyrimidinyl)-1,2-dihydro-6-quinolinesulfonamide] | – | IC50: 246 nM
COc1cc(-c2ccc(F)cc2)c(F)cc1-n1c(=O)ccc2cc(S(=O)(=O)Nc3ncco3)ccc21 [Example 771, 1-(2,4′-difluoro-5-methoxy-4-biphenylyl)-N-1,3-oxazol-2-yl-2-oxo-1,2-dihydro-6-quinolinesulfonamide] | 53 | –
COc1cc(-c2cccc(F)c2)ncc1-n1c(=O)ccc2cc(S(=O)(=O)Nc3ccon3)ccc21 (atropisomer, axis not shown; (P)) [Example 602, (P)-1-(6-(3-fluorophenyl)-4-methoxy-3-pyridinyl)-N-3-isoxazolyl-2-oxo-1,2-dihydro-6-quinolinesulfonamide] | 709 | –
COc1cc(-c2cnc(F)c(C)c2)c(F)cc1-n1c(=O)ccc2cc(S(=O)(=O)Nc3ccon3)ccc21 [Example 722, 1-(5-fluoro-4-(6-fluoro-5-methyl-3-pyridinyl)-2-methoxyphenyl)-N-3-isoxazolyl-2-oxo-1,2-dihydro-6-quinolinesulfonamide] | 178 | –

Structure (SMILES) | IC50 (in-vitro Nav 1.7 PX data) [nM] | other results
COc1cc(-c2cc(F)cc(Cl)c2)ccc1-n1c(=O)ccc2cc(S(=O)(=O)Nc3cccnn3)ccc21 (atropisomer, axis not shown; (M)) [Example 481, (M)-1-(3′-chloro-5′-fluoro-3-methoxy-4-biphenylyl)-2-oxo-N-3-pyridazinyl-1,2-dihydro-6-quinolinesulfonamide] | – | IC50 (in-vitro PatchXpress (PX)): 3070 nM
COc1cc(-c2ccccc2)c(F)cc1-n1c(=O)ccc2cc(S(=O)(=O)Nc3ccon3)ccc21 [Example 701, 1-(2-fluoro-5-methoxy-4-biphenylyl)-N-3-isoxazolyl-2-oxo-1,2-dihydro-6-quinolinesulfonamide] | 104 | –
COc1cccc(-c2nc(OC)c(-n3c(=O)ccc4cc(S(=O)(=O)Nc5ccon5)ccc43)cc2Cl)c1 [Example 1092, 1-(5-chloro-2-methoxy-6-(3-methoxyphenyl)-3-pyridinyl)-N-3-isoxazolyl-2-oxo-1,2-dihydro-6-quinolinesulfonamide] | 48 | –
COc1nc(OCC2CC2)c(Cl)cc1-n1c(=O)ccc2cc(S(=O)(=O)Nc3ccon3)ccc21 [638/819, 1-(5-chloro-6-(cyclopropylmethoxy)-2-methoxy-3-pyridinyl)-N-3-isoxazolyl-2-oxo-1,2-dihydro-6-quinolinesulfonamide] | 825 | –
COc1cc(-c2ccc(C(F)(F)F)cc2)c(F)cc1-n1c(=O)ccc2cc(S(=O)(=O)Nc3cc(C)ncn3)ccc21 [Example 798, 1-(2-fluoro-5-methoxy-4′-(trifluoromethyl)-4-biphenylyl)-N-(6-methyl-4-pyrimidinyl)-2-oxo-1,2-dihydro-6-quinolinesulfonamide] | 49 | –
COc1cc(-c2ccc(F)c(C)c2)c(F)cc1-n1c(=O)ccc2cc(S(=O)(=O)Nc3ccnc(C)n3)ccc21 [Example 944, 1-(2,4′-difluoro-5-methoxy-3′-methyl-4-biphenylyl)-N-(2-methyl-4-pyrimidinyl)-2-oxo-1,2-dihydro-6-quinolinesulfonamide] | 27 | –
COc1nc(O[C@H]2C[C@H]3CC[C@@H]2C3)c(Cl)cc1-n1c(=O)ccc2cc(S(=O)(=O)Nc3ccon3)ccc21 [Example 1223, 1-(6-((1R,2S,4S)-bicyclo[2.2.1]hept-2-yloxy)-5-chloro-2-methoxy-3-pyridinyl)-N-3-isoxazolyl-2-oxo-1,2-dihydro-6-quinolinesulfonamide] | – | IC50: 416 nM
COc1cccc(-c2cc(OC)c(-n3c(=O)ccc4cc(S(=O)(=O)Nc5ccon5)ccc43)cc2F)n1 [Example 805, 1-(5-fluoro-2-methoxy-4-(6-methoxy-2-pyridinyl)phenyl)-N-3-isoxazolyl-2-oxo-1,2-dihydro-6-quinolinesulfonamide] | 70 | –
COc1cc(-c2ccc(F)cc2)c(F)cc1-n1c(=O)ccc2cc(S(=O)(=O)Nc3cc(C)ncn3)ccc21 [Example 772, 1-(2,4′-difluoro-5-methoxy-4-biphenylyl)-N-(6-methyl-4-pyrimidinyl)-2-oxo-1,2-dihydro-6-quinolinesulfonamide] | 232 | –
COc1cc(C#CC(C)(C)O)c(F)cc1-n1c(=O)ccc2cc(S(=O)(=O)Nc3ccon3)ccc21 [Example 1139, 1-(5-fluoro-4-(3-hydroxy-3-methyl-1-butyn-1-yl)-2-methoxyphenyl)-N-3-isoxazolyl-2-oxo-1,2-dihydro-6-quinolinesulfonamide] | 7380 | –
COc1cc(-c2ccc(F)c(F)c2)c(F)cc1-n1c(=O)cnc2cc(S(=O)(=O)Nc3cccnn3)ccc21 [Example 1180, 2-oxo-N-3-pyridazinyl-1-(2,3′,4′-trifluoro-5-methoxy-4-biphenylyl)-1,2-dihydro-6-quinoxalinesulfonamide] | – | IC50: 265 nM
COc1cc(-c2ccc(C)nc2)c(F)cc1-n1c(=O)ccc2cc(S(=O)(=O)Nc3ccon3)ccc21 [Example 500, 1-(5-fluoro-2-methoxy-4-(6-methyl-3-pyridinyl)phenyl)-N-3-isoxazolyl-2-oxo-1,2-dihydro-6-quinolinesulfonamide] | – | IC50 (in-vitro PatchXpress (PX)): 2840 nM
COc1cc(F)cc(-c2ccc(OC)c(-n3c(=O)ccc4cc(S(=O)(=O)Nc5ccon5)ccc43)c2)c1 [Example 853, 1-(3′-fluoro-4,5′-dimethoxy-3-biphenylyl)-N-3-isoxazolyl-2-oxo-1,2-dihydro-6-quinolinesulfonamide] | 60 | –
O=c1ccc2cc(S(=O)(=O)Nc3cnccn3)ccc2n1-c1ccc(-c2cc(F)cc(F)c2)cc1C1CC1 [Example 1044, 1-(3-cyclopropyl-3′,5′-difluoro-4-biphenylyl)-2-oxo-N-2-pyrazinyl-1,2-dihydro-6-quinolinesulfonamide] | – | IC50 (in-vitro Nav 1.7 PX data (PatchXpress)): 2950 nM
COc1nc(-c2cc(F)cc(Cl)c2)c(Cl)cc1-n1c(=O)ccc2cc(S(=O)(=O)Nc3ccon3)ccc21 [Example 449, 1-(5-chloro-6-(3-chloro-5-fluorophenyl)-2-methoxypyridin-3-yl)-N-(isoxazol-3-yl)-2-oxo-1,2-dihydroquinoline-6-sulfonamide] | – | IC50 (in-vitro PatchXpress (PX)): 85 nM
